Assays:
[1] = target: T1, recombinant Arabidopsis ACS5 (Arabidopsis thaliana, UniProt Q37001); test: In vitro ACS activity assay; type: biochemical; details: purified recombinant ACS5, 30 min at 25° C.; read-out: estimated half maximal inhibitory concentration (IC50), ACS5 enzyme activity
T1 construct: The full-length cDNA of Arabidopsis ACS5 (At5g65800) was cloned to pETDuet (Novagen); 6His (N); made in house; host or cells: E. coli BL21-CodonPlus (Stratagene)
T1 sequence (Q37001 1-470): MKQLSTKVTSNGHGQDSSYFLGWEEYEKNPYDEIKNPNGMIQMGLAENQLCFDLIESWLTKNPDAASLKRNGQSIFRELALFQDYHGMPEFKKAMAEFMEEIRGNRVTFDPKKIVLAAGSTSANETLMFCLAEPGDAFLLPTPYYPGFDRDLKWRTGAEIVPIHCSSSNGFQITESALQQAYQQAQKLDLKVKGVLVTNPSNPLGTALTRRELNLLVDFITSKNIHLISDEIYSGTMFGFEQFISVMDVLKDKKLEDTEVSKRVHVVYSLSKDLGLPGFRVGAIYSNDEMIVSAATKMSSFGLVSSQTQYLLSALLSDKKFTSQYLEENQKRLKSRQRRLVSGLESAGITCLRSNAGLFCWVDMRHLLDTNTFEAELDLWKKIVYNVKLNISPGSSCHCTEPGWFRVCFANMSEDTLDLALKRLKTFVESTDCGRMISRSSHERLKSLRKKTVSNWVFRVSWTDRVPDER
Protocol: The full-length cDNA of Arabidopsis ACS5 (At5g65800) was cloned to pETDuet (Novagen) to generate pETDuet-6His-ACS5 for expression in E. coli (BL21-CodonPlus, Stratagene) and subsequent purification of the recombinant ACS5 protein. Protein expression was induced at OD600 0.6 by adding 0.4 mM IPTG, and cells were incubated at 16° C. for 18 h. Cells were harvested by centrifugation at 6000×g for 10 min at 4° C. The cell pellet was washed and suspended in 50 mL phosphate buffer (300 mM NaCl, 20 mM phosphate buffer, pH 7.4) containing 20 mM imidazole. Cell lysis was achieved by a continuous high-pressure cell disrupter (TS 2.2 KW, Constant System) with 30 KPsi at 4° C. After washing the cell disrupter twice with 50 ml phosphate buffer containing 20 mM imidazole, the final 150 ml suspension was centrifuged at 10000×g for 30 min at 4° C. The supernatant was applied to a 5-mL HisTrap FF column in an AKTAprime system (GE Healthcare) and was subsequently washed stepwise with 100 mL buffer A (1 mM EDTA, 5 mM DTT, 250 mM HEPES buffer, pH 8.0) containing 20 mM imidazole, then 100 mL buffer A containing 100 mM imidazole. The bound protein was eluted by a 0.1-1.0 M gradient of imidazole in 25 mL buffer A and stored at −80° C. until further analysis.
ACS activity assay was performed as described (Lizada, et al. (1979) Anal Biochem 100, 140-145; Yamagami, et al. (2003) J Biol Chem 278, 49102-49112), with minor modifications. […] Ethylene level was measured by use of a gas chromatograph (HP 6890, Hewlett-Packard) equipped with a capillary column (19095P-U04, Agilent Technologies) and an autosampler (HP 7694, Agilent Technologies). […]
To further test this possibility, recombinant Arabidopsis ACS5 protein from bacterial cells was purified for an in vitro enzyme activity assay. […] The quantity of ACC converted to ethylene by recombinant ACS5 is the readout of ACS activity. […]

[2] = target: T1, recombinant Arabidopsis ACS5; test: Enzyme kinetics assay of ACS5 (Lineweaver-Burk); type: biochemical; design: Vmax of recombinant ACS5 in the presence of inhibitor: unit not given here
Protocol: For the enzyme kinetics assay, different concentrations of SAM (20, 40, 60, 80, 100, 150, and 200 μM) were used to determine the Km and Vmax of purified recombinant ACS5. In addition, two concentrations, 0.05 and 0.1 μM, of AVG and compound 7303 were tested to determine the inhibition constant Ki. Reactions of enzyme kinetics assay were performed by first incubating chemical inhibitors or DMSO with different concentrations of SAM in 20-mL GC vials, then 1.6 μg purified ACS5 was added to initiate the enzyme reaction for 30 min at 25° C. Gas chromatography was used to quantitate the levels of ethylene chemically converted from ACC as described previously. Data analysis of enzyme kinetics assays and preparation of Lineweaver-Burk plots were done by SIGMAPLOT (Systat Software Inc.).
Because the exemplary invention compounds and AVG have distinct chemical structures (Table 1), they may use different mechanisms to inhibit ACC synthase. To clarify this issue, compound 7303 was selected as a representative of the exemplary invention compounds for enzyme kinetic assay to determine the inhibitory mechanism. […] Data from the enzyme kinetic assay support that the exemplary invention compounds are novel inhibitors of ACC synthase different from AVG and show uncompetitive inhibition in ACS activity.

Row | Compound | IC50 [1] [nM] | Vmax of recombinant ACS5 in the presence of inhibitor ([2]; 0.1 μM inhibitor, without inhibitor 95.1±5.0) | inhibition pattern (mechanism) ([2]; Lineweaver-Burk plot, 0.05 and 0.1 μM) | Vmax ([2]; kinetic parameters of recombinant ACS5 fitted for the inhibitor series, substrate SAM) [µmol/h/mg] | Ki ([2]; recombinant ACS5, inhibitor at 0.05 and 0.1 μM, read-out: calculated inhibition constant (Ki)) [nM]
1 | CC1(C)CC(=O)c2cnc(NC3CCCC3)nc2C1 [Compound 9393] | 3200 | – | – | – | –
2 | Cc1ccc(C2CC(=O)c3cnc(NC4CCCC4)nc3C2)cc1 (stereo not shown) [Compound 9370] | 1400 | – | – | – | –
3 | COc1ccc(C2CC(=O)c3cnc(Nc4ccccc4)nc3C2)cc1 (stereo not shown) [Compound 7303] | 500 | 50.5±1.2 | uncompetitive inhibitor | 92.4 | 98.4 ± 6.7
